One data set concerns MS. Particulars: MS clinical studies, cited from earlier work.
The next data set relates to MBP-induced EAE. In words: MBP-induced Lewis rat EAE. The data set is classed as in vivo. Particulars: i.p. daily from day 9. An excerpt:
The inhibitory activity of Compound 1 was characterized in both mouse and rat models of EAE. Mice were immunized s.c. with myelin oligodendrocyte glycoprotein (MOG) peptide 35-55 in CFA and later injected i.v. with Pertussis toxin. Mice were randomized at day 10 and given compound i.p. Compounds were subsequently administered daily and the animals assessed for clinical score. Mice were scored as follows: 0=no disease; 1=limp tail; 2=paralysis of one or both hind limbs; 4=paralysis of both hind- and forelimbs. […] Rats were dosed daily i.p. with compound starting day 9. Rats were scored daily and cumulative scores were determined by adding the average daily scores over the experimental period. […] The average daily scores+/−SEM and the cumulative average scores are shown. Cumulative average scores were determined by adding the average daily scores over the experimental period.

A short description of data set [1]: Peroxynitrite-carbonate radical scavenging assay (DHR probe). How it is done: Inflammatory conditions are characterized by increasing concentrations of reactive oxygen species. In this study, the ability of Compound 1 to specifically scavenge peroxynitrite-carbonate radicals was determined.
To the first column of a 96-well PCR plate (0.2 mL volume) was added 160 μL of TCWS. One well of the first column would equal one IC50 determination. Typically, test compounds were assayed in duplicate, i.e. two wells of column 1 were filled with each TCWS. To the remaining wells in columns 2-11 was added 80 μL of DWS. Using a multichannel pipettor, column 1 was serially diluted in 2-fold dilutions by removing 80 μL from column 1 and transferring with mixing to column 2. Column 2 was then diluted to column 3 and so on until column 11 where 80 μL of the diluted mixture was removed and discarded. At least 2 wells of row 12 were designated as the 0 test compound control to which 80 μL of DWS was added. One well of row 12 per test compound was designated as the background control to which 80 μL of the TCWS was added.
The plate was covered and incubated for 5 minutes at 37° C. upon which the reaction was initiated by addition of 20 μL of Sin-1 to columns 1-11 using a multichannel pipettor with mixing. The reaction was initiated similarly to the 0 test compound wells of column 12. To the background control wells was added 20 μL of PC buffer. The plate was incubated at 37° C. for 8 minutes (the reaction is linear for 10 minutes) and quenched by addition of 50 μL of AA to all wells with mixing. The plate was placed on ice for 5 minutes. Quenched assay mixtures were stable at room temperature for at least 24 hours.
Each reaction mixture (20 μL) was analyzed for rhodamine 123 product by HPLC using a Phenomenex Luna C18(2) column, 3 um, 4.6×50 mm using an A buffer of water+0.1% TFA and a B buffer of acetonitrile+0.1% TFA and the following gradient method: […]
The absorbance at 280 nm was also recorded to ensure no co-elution of test compound peaks.
Initial examination of the background control samples at the highest test compound concentration were performed to ensure no co-elution of test compound peaks with the product rhodamine 123 at 4 minutes. If co-elution was observed, the compound was not tested until an appropriate HPLC method was developed to separate the product and test compound peaks. The rhodamine 123 AUC was then determined for each test compound concentration and the percent inhibition of rhodamine 123 fluorescence was then determined by the following equation:
% Inhibition=[(AUCo−AUCx)/AUCo]*100
Where AUCo is the AUC of the rhodamine 123 peak at 0 test compound concentration and AUCX is the AUC of the rhodamine 123 peak at each test compound concentration=x.
The standard error of the curve fit for the IC50 was also determined along with the Hill slope. The IC50 determined for uric acid was divided by the IC50 determined for each test compound to generate Uric Acid Equivalents, a measure of the peroxynitrite-carbonate radical scavenging ability relative to uric acid.
Uric Acid Equivalents=[…]

The nature of another data set: Genotoxicity. To be noted: pre-clinical safety studies.
In another data set the test system is CYP450. Briefly: CYP450 inhibition or induction. It is filed as in vitro ADME. Particulars: pre-clinical ADME studies.
The next data set in a line: Metabolism. The data set is classed as in vitro ADME. Particulars: pre-clinical ADME studies.
Another data set concerns the target hERG/ion channel (Homo sapiens, UniProt Q12809). Briefly: hERG/ion channel assays. To be noted: pre-clinical safety studies. In general terms: hERG is a cardiac potassium channel; its block is linked to QT prolongation.
Data set [2] in a line: Cardiovascular safety study in monkeys. The data set is classed as in vivo.
Data set [3] deals with focal cerebral ischemia (permanent MCA occlusion). In words: Rat stroke model, permanent MCA occlusion. It is filed as in vivo, Male Wistar rats.
Another data set relates to Fmr1 KO2 mice. In words: Marble burying test, mouse model of Fragile X Syndrome. Particulars: 10 mg/kg/d. The data set is classed as in vivo. The procedure:
The purpose of this study was to test Compound 1 for treating Fragile X Syndrome. This study utilized Fmr1 KO mice, an animal model of Fragile X Syndrome.
The Fmr1 KO mice (C57BL/6 background) were kindly provided the FRAXA Foundation. Mice were housed in groups of the same genotype in a temperature and humidity controlled room with a 12-h light-dark cycle (lights on 7 am to 7 pm). Testing was conducted during the light phase. Food and water were available ad libitum. Testing was conducted on Fmr1 KO mice and their wild-type littermates. They were housed in commercial plastic cages purchased in the UK. Experiments were conducted in line with the requirements of the UK Animals (Scientific Procedures) Act, 1986.
The dosing protocol used is shown below. Mice were dosed at 6-7 weeks by intraperitoneal (i.p.) infusion by osmotic pump (0.5 μl/hour) for 1 week. The solution of 0.9% saline was used as a vehicle, and 10 mice were dosed per each group.

Where two headings read alike, the source gives them in different places.

Here are results for two molecules from US20150174144A1, “TETRACYCLINE COMPOUNDS FOR TREATING NEURODEGENERATIVE DISORDERS” (PARATEK PHARMACEUTICALS, INC., priority 2012, published 2015).

Sequence of hERG/ion channel (Q12809 whole entry): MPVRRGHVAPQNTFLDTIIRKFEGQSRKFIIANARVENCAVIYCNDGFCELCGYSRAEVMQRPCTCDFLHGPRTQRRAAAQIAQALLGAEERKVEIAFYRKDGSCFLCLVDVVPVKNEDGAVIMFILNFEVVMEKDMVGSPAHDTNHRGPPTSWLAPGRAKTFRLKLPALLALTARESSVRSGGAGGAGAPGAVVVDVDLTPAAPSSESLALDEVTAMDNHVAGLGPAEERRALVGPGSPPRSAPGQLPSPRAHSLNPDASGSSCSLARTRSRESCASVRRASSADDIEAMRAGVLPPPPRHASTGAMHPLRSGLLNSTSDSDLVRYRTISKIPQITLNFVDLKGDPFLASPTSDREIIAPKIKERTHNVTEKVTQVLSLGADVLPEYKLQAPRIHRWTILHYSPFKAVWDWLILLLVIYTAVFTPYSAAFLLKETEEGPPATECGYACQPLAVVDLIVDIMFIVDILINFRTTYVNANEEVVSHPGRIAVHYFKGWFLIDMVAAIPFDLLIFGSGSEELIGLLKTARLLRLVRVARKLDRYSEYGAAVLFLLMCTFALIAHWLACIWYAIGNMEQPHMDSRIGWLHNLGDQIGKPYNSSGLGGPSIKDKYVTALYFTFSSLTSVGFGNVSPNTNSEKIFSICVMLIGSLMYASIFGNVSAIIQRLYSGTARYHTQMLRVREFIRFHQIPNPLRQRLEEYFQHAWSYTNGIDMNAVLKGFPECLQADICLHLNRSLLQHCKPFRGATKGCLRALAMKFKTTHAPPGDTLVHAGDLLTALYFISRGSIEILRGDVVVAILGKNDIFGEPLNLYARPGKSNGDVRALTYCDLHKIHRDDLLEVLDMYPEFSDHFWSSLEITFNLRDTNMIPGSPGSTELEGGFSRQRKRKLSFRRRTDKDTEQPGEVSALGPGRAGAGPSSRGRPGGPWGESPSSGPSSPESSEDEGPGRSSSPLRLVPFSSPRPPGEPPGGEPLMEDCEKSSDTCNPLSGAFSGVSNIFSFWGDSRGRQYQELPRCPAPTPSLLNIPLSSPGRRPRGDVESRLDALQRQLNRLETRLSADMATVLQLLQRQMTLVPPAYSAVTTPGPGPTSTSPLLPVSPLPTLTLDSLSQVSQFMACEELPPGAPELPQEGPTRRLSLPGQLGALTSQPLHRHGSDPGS

Turning to `CN(C)c1ccc(O)c2c1C[C@H]1C[C@H]3[C@H](N(C)C)C(O)=C(C(N)=O)C(=O)[C@@]3(O)C(O)=C1C2=O` [Minocycline, minocycline, reference compound], the potential side effects entry with MS is “Mild Nausea”; with MS (listed as minocycline), “Mild nausea”.

As to `CCc1cc(N(C)C)c2c(c1O)C(=O)C1=C(O)[C@]3(O)C(=O)C(C(N)=O)=C(O)[C@@H](N(C)C)[C@@H]3C[C@@H]1C2` [Compound 1], the “Effect on clinical course of EAE (onset, maximum disease severity)” value in the data set on MBP-induced EAE is “both delayed the onset and inhibited the maximum disease severity more potently than minocycline”. Besides, in data set [1] (Sin-1, 37° C., 8 minutes, read-out: IC50, inhibition of oxidation of DHR probe (peroxynitrite-carbonate scavenging)), the IC50 – broadly, the point on the concentration scale where inhibition reaches its midpoint – was determined as 11 µM. Also, the “Uric Acid Equivalents” value in data set [1] (relative to uric acid) amounted to 1.13. In addition, the Effects in genotoxicity result in the data set “Genotoxicity” is given as “no significant effects”. In the data set on CYP450, the “Effects in CYP450 inhibition or induction” value is listed as “no significant effects”. Moreover, the Effects in metabolism result in the data set “Metabolism” is “no significant effects”. The “Effects in hERG/ion channel assays” value at hERG/ion channel is “no significant effects”. In addition, in [2], the Cardiovascular safety findings entry was “No treatment-related effects were observed”. Moreover, the Neurological score in [3] (40 mg/kg i.v. at −90 min, 90 min, 6 hr after MCAO, permanent) was determined as 1.1 ± 0.3. In [3] (40 mg/kg i.v. at −90 min, 90 min, 6 hr after MCAO, permanent, 24 hr after MCAO), the “Infarct volume (Means ± SD)” value is 145.7 ± 33.9 mm3. For the same molecule, the “Effect on infarct volume” value in data set [3] (permanent occlusion, treatment started at 90 min pre-occlusion) is reported as “statistically significant reductions in infarct volume”. The “Marble burying deficit of Fmr1 KO2 mice” value in the data set on Fmr1 KO2 mice is “significantly rescued”.
